Results from the supplement of paper PMC10307832.

Columns and labels:
Experiment in all cases: relative viability (nuclei count vs DMSO), 5 days (fraction); higher = more cells survive
SW 900 = conditions: first compound 4 µM
How it was run: (§1)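 Dosing by pin tool came one day after lung cancer cell lines were seeded in 1536-well plates, using either one drug or a fixed anchor-drug dose plus five library-drug doses (not always all listed) in √10 steps. After 5 days, nuclei were counted on 4× images. Relative viability is treated-well nuclei count divided by vehicle-well nuclei count, and values are medians of duplicate plates.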

EKVX = test system: EKVX
How it was run: as §1

NCI-H2405 = test system: NCI-H2405
How it was run: as §1

PC-14 = test system: PC-14
How it was run: as §1

EPLC-272H = test system: EPLC-272H
How it was run: as §1

NCI-H1975 = test system: NCI-H1975
How it was run: as §1

LU99A = test system: LU99A
How it was run: as §1

EMC-BAC-2 = test system: EMC-BAC-2
How it was run: as §1

HCC-827 = test system: HCC-827
How it was run: as §1

NCI-H2126 = test system: NCI-H2126
How it was run: as §1

LK-2 = test system: LK-2
How it was run: as §1

HCC-78 = test system: HCC-78
How it was run: as §1

Work on Cc1sc2c(c1C)C(c1ccc(Cl)cc1)=N[C@@H](CC(=O)OC(C)(C)C)c1nnc(C)n1-2 [JQ1] + COc1cc2c(Oc3ccc(NC(=O)C4(C(=O)Nc5ccc(F)cc5)CC4)cc3F)ccnc2cc1OCCCN1CCOCC1 [Foretinib] (partner 0.25 µM) yielded a relative viability (SW 900) of 0.188, a relative viability (EKVX; first compound 0.04 µM) of 0.881 and a relative viability (EKVX; first compound 0.1265 µM) of 0.448. The relative viability (EKVX; first compound 0.4 µM) was 0.787, the relative viability (EKVX; first compound 1.265 µM) was 0.655 and the relative viability (EKVX; first compound 4 µM) was 0.512. The relative viability (NCI-H2405; first compound 0.04 µM) was 1.08, the relative viability (NCI-H2405; first compound 0.1265 µM) was 1.02 and the relative viability (NCI-H2405; first compound 0.4 µM) was 1.03. The relative viability (NCI-H2405; first compound 1.265 µM) was 0.835, the relative viability (NCI-H2405; first compound 4 µM) was 0.744 and the relative viability (PC-14; first compound 0.04 µM) was 0.906. It also gave a relative viability (PC-14; first compound 0.1265 µM) of 0.645, a relative viability (PC-14; first compound 0.4 µM) of 0.625 and a relative viability (PC-14; first compound 1.265 µM) of 0.582. It also gave a relative viability (PC-14; first compound 4 µM) of 0.477, a relative viability (EPLC-272H; first compound 0.04 µM) of 0.639 and a relative viability (EPLC-272H; first compound 0.1265 µM) of 0.508. The relative viability (EPLC-272H; first compound 0.4 µM) was 0.454, the relative viability (EPLC-272H; first compound 1.265 µM) was 0.247 and the relative viability (EPLC-272H; first compound 4 µM) was 0.191. It also gave a relative viability (NCI-H1975; first compound 0.04 µM) of 0.916, a relative viability (NCI-H1975; first compound 0.1265 µM) of 0.731 and a relative viability (NCI-H1975; first compound 0.4 µM) of 0.713. For the same molecule, the relative viability (NCI-H1975; first compound 1.265 µM) was 0.541, the relative viability (NCI-H1975; first compound 4 µM) was 0.353 and the relative viability (LU99A; first compound 0.04 µM) was 0.821. The relative viability (LU99A; first compound 0.1265 µM) was 0.85, the relative viability (LU99A; first compound 0.4 µM) was 0.559 and the relative viability (LU99A; first compound 1.265 µM) was 0.374. The relative viability (LU99A; first compound 4 µM) was 0.304, the relative viability (EMC-BAC-2; first compound 0.04 µM) was 1.04 and the relative viability (EMC-BAC-2; first compound 0.1265 µM) was 0.868. It also gave a relative viability (EMC-BAC-2; first compound 0.4 µM) of 0.584, a relative viability (EMC-BAC-2; first compound 1.265 µM) of 0.376 and a relative viability (EMC-BAC-2; first compound 4 µM) of 0.556. It also gave a relative viability (HCC-827; first compound 0.04 µM) of 1.1, a relative viability (HCC-827; first compound 0.4 µM) of 1.14 and a relative viability (HCC-827; first compound 1.265 µM) of 1.22. It also gave a relative viability (HCC-827; first compound 4 µM) of 0.907, a relative viability (NCI-H2126; first compound 0.04 µM) of 1.22 and a relative viability (NCI-H2126; first compound 0.1265 µM) of 1.15. The relative viability (NCI-H2126; first compound 0.4 µM) was 1.03, the relative viability (NCI-H2126; first compound 1.265 µM) was 0.655 and the relative viability (NCI-H2126; first compound 4 µM) was 0.693. The relative viability (LK-2; first compound 0.04 µM) was 1.21, the relative viability (LK-2; first compound 0.1265 µM) was 1.04 and the relative viability (LK-2; first compound 0.4 µM) was 0.325. It also gave a relative viability (LK-2; first compound 1.265 µM) of 0.226, a relative viability (LK-2; first compound 4 µM) of 0.221 and a relative viability (HCC-78; first compound 0.04 µM) of 0.557. It also gave a relative viability (HCC-78; first compound 0.1265 µM) of 0.506, a relative viability (HCC-78; first compound 0.4 µM) of 0.495 and a relative viability (HCC-78; first compound 1.265 µM) of 0.509. The relative viability (HCC-78; first compound 4 µM) was 0.453.
